From patent US8637510B2, “Morpholinothiazoles as alpha 7 positive allosteric modulators” (Janssen Pharmaceutica NV, priority 2009, dated 2014) come the findings set out here.

The target in data set [1] is T1, human alpha 7-wt nAChR (Homo sapiens, UniProt P36544).
T1 construct: expressed in transfected cells
Description: Ca2+ flux imaging (FDSS) (Protocol B). In kind it is cell-based. Conditions: for Emax: efficacy of 100 μM choline defined as 100% in the absence of a PAM, read-out: a7-PAM-G_[33]_Eff_Curve_FI % Efficacy; for EC50: potentiation of 100 μM choline, compounds 0.01 μM to 30 μM, read-out: a7-PAM-G_[33]_pEC50 pEC50 (converted). The gist of the method:
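Fluo-4AM-loaded cells expressing human α7-wt nAChR, in HBSS with 10 mM HEPES, 5 mM CaCl2, 0.1% BSA, received compound (0.01–30 μM), typically 10 min before 100 μM choline, with calcium flux read in real time. Potentiation is relative to choline alone (100%); EC50 from sigmoidal curves.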
A general note: A change in cytosolic calcium serves as a functional read-out for many receptors and channels.

Data set [2] deals with T2, human alpha 7-wt nAChR-expressing GH4C1 cells (Homo sapiens, UniProt P36544).
T2 construct: expressed in transfected cells
Description: Patch-clamp current recording (whole-cell voltage-clamp, PAM type classification). In kind it is cell-based. Also on record: key: Type 0 compounds minimally change the effect size of the current elicited by 1 mM choline.; Type 1 compounds enhance the effect size of the current elicited by 1 mM choline but minimally alter the kinetics of the receptor.; Type 2 compounds enhance the effect size of the current elicited by 1 mM choline while reducing the rate and/or the extent of desensitization.; Type 3 compounds enhance the effect size of the current elicited by 1 mM choline. When tested at higher concentrations up to 10 μM they completely inhibit desensitization; Type 4 compounds allow for an initial desensitization of the receptor followed by a re-opening of the receptor during agonist application. The settings on record: 1 mM choline. The gist of the method: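 Whole-cell voltage clamp of GH4C1 cells stably expressing human wild-type α7 nAChR, with compound co-applied with 1 mM choline via rapid (<100 ms) solution switching; external pH 7.3, CsCl-based internal solution, 1.5-3 MΩ electrodes. PAM type (0-4) assigned from current kinetics when peak potentiation reached ≥200% of control choline response.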

T2 sequence (P36544 23-502): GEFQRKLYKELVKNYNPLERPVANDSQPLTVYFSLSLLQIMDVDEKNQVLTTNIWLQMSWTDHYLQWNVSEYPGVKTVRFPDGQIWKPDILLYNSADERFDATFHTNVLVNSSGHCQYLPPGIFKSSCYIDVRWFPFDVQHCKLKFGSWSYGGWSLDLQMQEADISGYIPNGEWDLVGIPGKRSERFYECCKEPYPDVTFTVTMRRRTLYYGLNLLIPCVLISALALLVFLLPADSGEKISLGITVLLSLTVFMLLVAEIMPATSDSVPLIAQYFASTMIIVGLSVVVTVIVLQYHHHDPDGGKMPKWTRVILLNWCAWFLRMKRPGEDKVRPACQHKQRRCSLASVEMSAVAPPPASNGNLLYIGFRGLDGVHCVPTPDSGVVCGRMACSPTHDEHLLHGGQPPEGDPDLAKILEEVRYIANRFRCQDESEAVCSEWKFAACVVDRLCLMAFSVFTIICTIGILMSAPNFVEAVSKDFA
T1 sequence (P36544 23-502): as above

For orientation: melting point means the temperature of the solid-liquid transition. Consider `Cc1cc(-c2sc(N3C[C@@H](C)O[C@@H](C)C3)nc2CNC(=O)CC2CC2)ccn1` [Compound 88, N-[[2-[(2R,6S)-2,6-dimethyl-4-morpholinyl]-5-(2-methyl-4-pyridinyl)-4-thiazolyl]methyl]-cyclopropaneacetamide], for which the melting point worked out at 177 °C. Further, in data set [1], the Emax turned out to be 736% and the EC50 was 562 nM. Besides, the “PAM_Type PAM type” value in data set [2] is reported as 2.

`Cc1cc(-c2sc(N3C[C@@H](C)O[C@@H](C)C3)nc2CNC(=O)c2ccccc2Cl)ccn1` [Compound 90, 2-chloro-N-[[2-[(2R,6S)-2,6-dimethyl-4-morpholinyl]-5-(2-methyl-4-pyridinyl)-4-thiazolyl]methyl]-benzamide] displayed a melting point of 155 °C. Also, in data set [1], the Emax stood at 491% and the EC50 is 490 nM. In addition, in data set [2], the “PAM_Type PAM type” value stood at 2.

`Cc1ccc(-c2sc(N3C[C@@H](C)O[C@@H](C)C3)nc2CNC(=O)c2cc(C)on2)cn1` [Compound 118, N-[[2-[(2R,6S)-2,6-dimethyl-4-morpholinyl]-5-(6-methyl-3-pyridinyl)-4-thiazolyl]methyl]-5-methyl-3-isoxazolecarboxamide]: the melting point worked out at 148 °C. Besides, in data set [1], the Emax turned out to be 430% and the EC50 was 1860 nM. In data set [2], the “PAM_Type PAM type” value came out at 0.

In the case of `Cc1cc(-c2sc(N3CCOC(C)(C)C3)nc2CNC(=O)CC2CC2)cc(C)n1` [Compound 156, N-[[2-(2,2-dimethyl-4-morpholinyl)-5-(2,6-dimethyl-4-pyridinyl)-4-thiazolyl]methyl]-cyclopropaneacetamide], the melting point was determined as 135 °C. The EC50 in data set [1] is 1260 nM. Also, the “PAM_Type PAM type” value in data set [2] is reported as 0.

The molecule `Cc1cc(-c2sc(N3CCOC(C)(C)C3)nc2CNC(=O)c2ccc(F)cc2C)cc(C)n1` [Compound 157, N-[[2-(2,2-dimethyl-4-morpholinyl)-5-(2,6-dimethyl-4-pyridinyl)-4-thiazolyl]methyl]-4-fluoro-2-methyl-benzamide] gave a melting point of 197 °C. For the same molecule, the EC50 in data set [1] is 224 nM. The “PAM_Type PAM type” value in data set [2] is on record as 2.

`Cc1cc(-c2sc(N3C[C@@H](C)O[C@@H](C)C3)nc2CNC(=O)c2ncsc2C)cc(C)n1` [Compound 178, N-[[2-[(2R,6S)-2,6-dimethyl-4-morpholinyl]-5-(2,6-dimethyl-4-pyridinyl)-4-thiazolyl]methyl]-5-methyl-4-thiazolecarboxamide] gave a melting point of 180 °C. In addition, in data set [1], the Emax is 733% and the EC50 was 501 nM. Moreover, the “PAM_Type PAM type” value in data set [2] turned out to be 0.

Turning to `Cc1cc(-c2sc(N3CCOC(C(F)(F)F)C3)nc2CNC(=O)CC2CC2)cc(C)n1` (stereo not shown) [Compound 190, N-[[5-(2,6-dimethyl-4-pyridinyl)-2-[2-(trifluoromethyl)-4-morpholinyl]-4-thiazolyl]methyl]-cyclopropaneacetamide], the melting point was 168 °C. The EC50 in data set [1] was 70.8 nM. The “PAM_Type PAM type” value in data set [2] stood at 2.

Turning to `Cc1cc(-c2sc(N3CCO[C@@H](C(F)(F)F)C3)nc2CNC(=O)CC2CC2)cc(C)n1` [Compound 191, N-[[5-(2,6-dimethyl-4-pyridinyl)-2-[(2R)-2-(trifluoromethyl)-4-morpholinyl]-4-thiazolyl]methyl]-cyclopropaneacetamide], the melting point was determined as 182 °C. Besides, in data set [1], the Emax turned out to be 995% and the EC50 is 74.1 nM. Also, the “PAM_Type PAM type” value in data set [2] turned out to be 2.

For the molecule `Cc1cc(-c2sc(N3CCO[C@H](C(F)(F)F)C3)nc2CNC(=O)CC2CC2)cc(C)n1` [Compound 192, N-[[5-(2,6-dimethyl-4-pyridinyl)-2-[(2S)-2-(trifluoromethyl)-4-morpholinyl]-4-thiazolyl]methyl]-cyclopropaneacetamide], the melting point was found to be 183 °C. Further, in data set [1], the Emax was found to be 670% and the EC50 was 234 nM. Further, the “PAM_Type PAM type” value in data set [2] is 2.

`Cc1cc(-c2sc(N3CCOC(C(F)(F)F)C3)nc2CNC(=O)C(C)C)cc(C)n1` (stereo not shown) [Compound 194, N-[[5-(2,6-dimethyl-4-pyridinyl)-2-[2-(trifluoromethyl)-4-morpholinyl]-4-thiazolyl]methyl]-2-methyl-propanamide] registered a melting point of 189 °C. For the same molecule, in data set [1], the EC50 was 55 nM. Further, the “PAM_Type PAM type” value in data set [2] was 3.

For the molecule `Cc1cc(-c2sc(N3CCOC(C(F)(F)F)C3)nc2CNC(=O)c2cc(C)on2)cc(C)n1` (stereo not shown) [Compound 195, N-[[5-(2,6-dimethyl-4-pyridinyl)-2-[2-(trifluoromethyl)-4-morpholinyl]-4-thiazolyl]methyl]-5-methyl-3-isoxazolecarboxamide], the melting point was 170 °C. In addition, in data set [1], the EC50 was 186 nM. The “PAM_Type PAM type” value in data set [2] is recorded as 0.

Consider `Cc1cc(-c2sc(N3CCOC(C(F)(F)F)C3)nc2CNC(=O)c2conc2C)cc(C)n1` (stereo not shown) [Compound 196, N-[[5-(2,6-dimethyl-4-pyridinyl)-2-[2-(trifluoromethyl)-4-morpholinyl]-4-thiazolyl]methyl]-3-methyl-4-isoxazolecarboxamide], for which the melting point is 178 °C. Besides, in data set [1], the Emax stood at 819% and the EC50 is 56.2 nM. Also, the “PAM_Type PAM type” value in data set [2] is listed as 2.

Molecule `Cc1nocc1C(=O)NCc1nc(N2C[C@@H](C)O[C@@H](C)C2)sc1-c1ccnc(C(F)(F)F)c1` [Compound 197, N-[[2-[(2R,6S)-2,6-dimethyl-4-morpholinyl]-5-[2-(trifluoromethyl)-4-pyridinyl]-4-thiazolyl]methyl]-3-methyl-4-isoxazolecarboxamide] registered a melting point of 205 °C. Also, the EC50 in data set [1] was 363 nM. In addition, the “PAM_Type PAM type” value in data set [2] came to 1.

`C[C@@H]1CN(c2nc(CNC(=O)CC3CC3)c(-c3ccnc(C(F)(F)F)c3)s2)C[C@H](C)O1` [Compound 200, N-[[2-[(2R,6S)-2,6-dimethyl-4-morpholinyl]-5-[2-(trifluoromethyl)-4-pyridinyl]-4-thiazolyl]methyl]-cyclopropaneacetamide] had a melting point of 198 °C. Besides, the EC50 in data set [1] was 162 nM. The “PAM_Type PAM type” value in data set [2] is 1.

With `CC(C)C(=O)NCc1nc(N2C[C@@H](C)O[C@@H](C)C2)sc1-c1ccnc(C(F)(F)F)c1` [Compound 201, N-[[2-[(2R,6S)-2,6-dimethyl-4-morpholinyl]-5-[2-(trifluoromethyl)-4-pyridinyl]-4-thiazolyl]methyl]-2-methyl-propanamide], the melting point was determined as 216 °C. Further, in data set [1], the Emax stood at 930% and the EC50 is 245 nM. Further, the “PAM_Type PAM type” value in data set [2] is given as 1.

The molecule `Cc1cc(-c2sc(N3CC4CCC(C3)O4)nc2CNC(=O)C(C)C)cc(C)n1` [Compound 207, N-[[5-(2,6-dimethyl-4-pyridinyl)-2-(8-oxa-3-azabicyclo[3.2.1]oct-3-yl)-4-thiazolyl]methyl]-2-methyl-propanamide] had a melting point of 179 °C. The EC50 in data set [1] was 3310 nM. Moreover, the “PAM_Type PAM type” value in data set [2] is 1.

Turning to `Cc1cc(-c2sc(N3CC4CCC(C3)O4)nc2CNC(=O)c2ccc(F)cc2C)cc(C)n1` [Compound 208, N-[[5-(2,6-dimethyl-4-pyridinyl)-2-(8-oxa-3-azabicyclo[3.2.1]oct-3-y1)-4-thiazolyl]methyl]-4-fluoro-2-methyl-benzamide], the melting point stood at 194 °C. Also, in data set [1], the Emax is 898% and the EC50 is 603 nM. The “PAM_Type PAM type” value in data set [2] was 2.

In the case of `Cc1cc(-c2sc(N3CC4CCC(C3)O4)nc2CNC(=O)CC2CC2)cc(C)n1` [Compound 209, N-[[5-(2,6-dimethyl-4-pyridinyl)-2-(8-oxa-3-azabicyclo[3.2.1]oct-3-y1)-4-thiazolyl]methyl]-cyclopropaneacetamide], the melting point came out at 161 °C. Also, in data set [1], the Emax is 705% and the EC50 is 3160 nM. Moreover, in data set [2], the “PAM_Type PAM type” value was determined as 0.
